# Assays:
# E. coli = assay: Bacterial susceptibility testing, MIC by broth microdilution (CLSI); type: cell-based; settings: Escherichia coli, cation adjusted Mueller-Hinton Broth, 35° C., 18-24 h
# Protocol: (§1) Minimal inhibitory concentrations (MIC) were determined by the broth microdilution method in accordance with the Clinical and Laboratory Standards Institute (CLSI) guidelines. In brief, organism suspensions were adjusted to a 0.5 McFarland standard to yield a final inoculum between 3×10^5 and 7×10^5 colony-forming units (CFU)/mL. Drug dilutions and inocula were made in sterile, cation adjusted Mueller-Hinton Broth (Beckton Dickinson). An inoculum volume of 100 μL was added to wells containing 100 μL of broth with 2-fold serial dilutions of drug. All inoculated microdilution trays were incubated in ambient air at 35° C. for 18-24 h. Following incubation, the lowest concentration of the drug that prevented visible growth (OD600 nm<0.05) was recorded as the MIC. Performance of the assay was monitored by the use of laboratory quality-control strains and levofloxacin, a compound with a defined MIC spectrum, in accordance with CLSI guidelines.
# S. aureus = assay: as above; type: cell-based; settings: Staphylococcus aureus, cation adjusted Mueller-Hinton Broth, 35° C., 18-24 h
# Protocol: as §1
MIC (E. coli),MIC (S. aureus),Compound
> 32 µg/mL,,"CS(=O)(=O)C(Cc1ccc(C#Cc2ccc(CN3CCOCC3)cc2)cc1)c1occc(=O)c1O (stereo not drawn) [Compound 1, 3-hydroxy-2-(1-(methylsulfonyl)-2-(4-((4-(morpholinomethyl)phenyl)ethynyl)phenyl)ethyl)-4H-pyran-4-one]"
> 32 µg/mL,,"O=C(Nc1ccc(C#CC#Cc2ccccc2)cc1)c1occc(=O)c1O [Compound 2, 3-hydroxy-4-oxo-N-(4-(phenylbuta-1,3-diyn-1-yl)phenyl)-4H-pyran-2-carboxamide]"
> 32 µg/mL,> 32 µg/mL,"CS(=O)(=O)NCC(Cc1ccc(-c2ccccc2)cc1)c1occc(=O)c1O (stereo not drawn) [Compound 3, N-(3-([1,1′-biphenyl]-4-yl)-2-(3-hydroxy-4-oxo-4H-pyran-2-yl)propyl)methanesulfonamide]"
> 32 µg/mL,> 32 µg/mL,"CS(=O)(=O)CC(Cc1ccc(-c2ccccc2)cc1)c1occc(=O)c1O (stereo not drawn) [Compound 4, 2-(1-([1,1′-biphenyl]-4-yl)-3-(methylsulfonyl)propan-2-yl)-3-hydroxy-4H-pyran-4-one]"
> 32 µg/mL,> 32 µg/mL,"O=c1ccoc(C(CO)Cc2ccc(-c3ccccc3)cc2)c1O (stereo not drawn) [Compound 5, 2-(1-([1,1′-biphenyl]-4-yl)-3-hydroxypropan-2-yl)-3-hydroxy-4H-pyran-4-one]"
8 µg/mL,8 µg/mL,"NCC(Cc1ccc(-c2ccccc2)cc1)c1occc(=O)c1O (stereo not drawn) [Compound 6, 2-(1-([1,1′-biphenyl]-4-yl)-3-aminopropan-2-yl)-3-hydroxy-4H-pyran-4-one]"
> 32 µg/mL,> 32 µg/mL,"O=c1ccoc(CN(CCO)c2ccc(-c3ccccc3)cc2)c1O [Compound 7, 2-(([1,1′-biphenyl]-4-yl(2-hydroxyethyl)amino)methyl)-3-hydroxy-4H-pyran-4-one]"

# Reference: US11021471B2, “Antibacterial compounds” (FORGE THERAPEUTICS, INC., priority 2017, dated 2021)
